This passage reports TGI and GI50 results from PubChem BioAssay (NCI).

Holding throughout (experiment): growth of human tumour cells (NCI), 48 h
Experiment [1] has as its system COLO 205 colon.
Experiment [2] relates to SNB-19 CNS.
In experiment [3] the test system is OVCAR-5 ovarian.
For experiment [4], the system named is T-47D breast.
The test system of experiment [5] is HCC-2998 colon.
In experiment [6] the test system is U251 CNS.
Experiment [7] has as its system UACC-257 melanoma.
Experiment [8] has as its system OVCAR-8 ovarian.
Experiment [9] concerns MOLT-4 leukemia.
Experiment [10] concerns SR leukemia.

“And” between values parts separate entries of the source, which are not always exact repeats. Equal entries are not always repeated.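 1) Cells in 96-well plates. 2) Compound, 48 h, 5 concentrations. 3) Linear interpolation between surrounding doses. 4) Unreached endpoint = highest concentration. Abbreviation: GI50, concentration required for 50% inhibition of growth. TGI marks complete inhibition of growth.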

For the compound `CCN(CC)CCC(=O)OC1C(C)=CC(C)C(=O)CC(C(C)CC2CCC(O)C(OC)C2)OC(=O)C2CCCCN2C(=O)C(=O)[C@@]2(O)OC(CCC2C)CC(OC)\C(C)=C/C=C/C=C/C(C)CC(C)C(=O)C1OC` (stereo partly specified), the TGI amounted to 24.6 µM in [1]; 21.6 µM in experiment [2]; 25.6 µM in experiment [3]; 14.6 µM in experiment [4]; 21.8 µM in experiment [5]; 23.1 µM in experiment [6]. Also, the TGI is 27.1 µM in [7] and 22.5 µM in [8].
Take `O=C(O)CNc1ccc(Cl)c(Cl)c1`: the TGI was 41.7 µM in experiment [1]; more than 100 µM in experiment [2]; more than 100 µM in experiment [9]; more than 100 µM in experiment [3]; more than 100 µM in experiment [4]; more than 100 µM in [6]. The values for the TGI in experiment [7] and in [8] were 96.3 µM and 85.4 µM, respectively.
In the case of `Cc1c(N)nc([C@H](CC(N)=O)NC[C@H](N)C(N)=O)nc1C(=O)N[C@H](C(=O)N[C@H](C)[C@@H](O)CC(=O)N[C@H](C(=O)NC(O[C@@H]1O[C@@H](C)[C@@H](N)[C@@H](O)[C@H]1O)C(O)c1nc(-c2nc(C(=O)NCCCCN)cs2)cs1)[C@@H](C)O)[C@@H](O[C@@H]1O[C@@H](CO)[C@@H](O)[C@H](O)[C@@H]1O[C@H]1O[C@H](CO)[C@@H](O)[C@H](OC(N)=O)[C@@H]1O)c1c[nH]cn1` (stereo partly specified), the TGI in experiment [1], in [2], in experiment [9], in [3], in experiment [4] and in experiment [5] was more than 50 µM in each case. Moreover, the TGI in [6], in [7] and in [8] was more than 50 µM each time.
For the compound `CCCCCCCCCCCC[N+](C)(C)Cc1ccccc1`, the GI50 is 1.65 µM in experiment [1]; 2.11 µM in experiment [2]; 2.18 µM in experiment [9]; 2.86 µM in [3]; 2.68 µM in [4]; 1.83 µM in [10]. Also, the figures for the GI50 in experiment [6], in experiment [7] and in [8] were 1.48 µM, 1.82 µM and 2.16 µM, respectively. The TGI in experiment [1] is 3.34 µM; in [2], 7.12 µM; in [9] it was 5.4 µM; in [3] it was 13.5 µM; in experiment [4], 15.5 µM; in experiment [10] it was 5.16 µM. In addition, the TGI turned out to be 3.51 µM in [6], 4.25 µM in [7] and 6.75 µM in experiment [8].
On to `CC(=O)O[C@@]12CO[C@@H]1C[C@H](O)[C@@]1(C)C(=O)[C@H](O)C3=C(C)[C@@H](OC(=O)[C@H](O)[C@@H](NC(=O)OC(C)(C)C)c4ccccc4)C[C@@](O)([C@@H](OC(=O)c4ccccc4)C12)C3(C)C` (stereo partly specified), for which the TGI in experiment [1] is 0.0251 µM; in experiment [2], more than 100 µM; in [9] it was 52.6 µM; in experiment [3], 89.2 µM; in experiment [10] it was 46.3 µM and 14.7 µM; in experiment [5], 0.00872 µM and 0.0429 µM. Further, the TGI in experiment [6] is 50 µM and > 100 µM; in experiment [7], more than 100 µM; in experiment [8], 50 µM. Further, the GI50 in experiment [2] is 0.031 µM; in experiment [9], 0.0194 µM; in [10], less than 0.005 µM; in [5], less than 0.005 µM; in [6], less than 0.005 µM; in experiment [7], 32.3 µM. Moreover, the GI50 in [8] is less than 0.005 µM.
`O=C1C=C2C=CC3CC2(O1)C1CCCCN31` (stereo unspecified): the GI50 in [1] is 21.6 µM and 15.1 µM and 58.7 µM; in experiment [3], 34.7 µM and 25.9 µM and > 100 µM; in experiment [4], 22.3 µM and 14.1 µM and 53.4 µM; in experiment [6], 20 µM and 27.7 µM and 60.9 µM; in experiment [7] it was 25 µM and 13.8 µM and 86.8 µM. For the same compound, the TGI was 73.5 µM and 29.3 µM and > 100 µM in [1]; > 100 µM and 55.5 µM in experiment [2]; 72.6 µM and 56.1 µM and > 100 µM in experiment [9]; more than 100 µM in experiment [3]; 71.6 µM and 36.2 µM and > 100 µM in experiment [4]; 40.9 µM and 42.4 µM and 86.4 µM in experiment [5]. Moreover, the TGI in experiment [6] is 62 µM and 88.8 µM and > 100 µM; in experiment [7] it was > 100 µM and 66.7 µM; in [8], 72.6 µM and 40.2 µM and 93.8 µM.
In the case of `CCNc1cc2oc(=O)cc(C(F)(F)F)c2cc1C`, the TGI in experiment [1], in experiment [2], in [9], in experiment [3], in experiment [4] and in experiment [5] was more than 100 µM each time. The TGI in experiment [6], in experiment [7] and in experiment [8] was more than 100 µM each time.
`O=c1cc(-c2ccccc2)oc2ccc(OC/C(=N/O)c3ccc(F)cc3)cc12`: the GI50 in experiment [1] is 2.23 µM; in experiment [2] it was 5.1 µM; in experiment [9], 3.54 µM; in experiment [3], 16.4 µM; in experiment [10] it was 2.09 µM; in [5], 4.41 µM. Moreover, the GI50 is 3.03 µM in experiment [6], 9.77 µM in [7] and 8.44 µM in experiment [8]. Moreover, the TGI in experiment [1] was 8.19 µM; in experiment [2], more than 50 µM; in experiment [9] it was more than 50 µM; in experiment [3], more than 50 µM; in [10], more than 50 µM; in experiment [5] it was 12.5 µM. Also, the TGI in experiment [6] was 43.7 µM; in experiment [7], 38.2 µM; in [8] it was more than 50 µM.
Consider `COc1cccc(OC(=O)c2ccc(C(F)(F)F)nc2Nc2c(C)cccc2Cl)c1`, for which the GI50 is 22.6 µM in [1]; 22.4 µM in experiment [2]; 31.5 µM in experiment [9]; 3.13 µM in experiment [3]; 18.7 µM in experiment [4]; 4.63 µM in experiment [5]. The GI50 in experiment [6] was 19.1 µM; in experiment [7], 33.4 µM; in experiment [8], 19.5 µM. The TGI in experiment [1] is more than 100 µM; in experiment [2], 73.5 µM; in [9], more than 100 µM; in [3], 21.2 µM; in experiment [4] it was more than 100 µM; in experiment [5], 32.3 µM. Moreover, the TGI was 40.6 µM in [6], more than 100 µM in experiment [7] and 46.3 µM in [8].
In the case of `CC(C)=O.O=C([O-])C(F)(F)F.O=C([O-])C(F)(F)F.O=C([O-])C(F)(F)F.O=C([O-])C(F)(F)F.[Rh+2].[Rh+2]`, the GI50 is 96.1 µM in experiment [1]; 60.4 µM in experiment [2]; 15.4 µM in experiment [9]; more than 100 µM in [3]; 22.2 µM in experiment [10]; more than 100 µM in experiment [5]. For the same compound, the values for the GI50 in experiment [6], in experiment [7] and in experiment [8] were 47.5 µM, more than 100 µM and 56.1 µM, respectively. The TGI in experiment [1], in [2], in experiment [9], in experiment [3], in [10] and in [5] was more than 100 µM each time. Moreover, the TGI in experiment [6], in [7] and in experiment [8] was more than 100 µM each time.
